Reference: patent US6572879B1, “Formulations for transdermal delivery of pergolide” (Alza Corporation, priority 1995, dated 2003)
Where a name gives a salt, the structure may show the parent alone.

Columns and labels:
[1] = In vitro flux of pergolide through human cadaver epidermis in diffusion cells at 35° C.; assay type: in vitro ADME; conditions: 2% by weight in water donor, no permeation enhancer, over a period of 50 hours
Description: Several test samples were made to measure the flux of pergolide base and mesylate through human cadaver epidermis from donor vehicles containing the pergolide base or mesylate mixed with water alone, water and ethanol, or mineral oil alone as shown in Table 1. Transdermal fluxes were obtained using human epidermis at 35° C. in standard diffusion cells. FIGS. 5 and 6 graphically depict the results.
Circular pieces of human epidermis were placed with stratum corneum facing up. The release liner of the laminate was removed and the system was centered over the stratum corneum side of the epidermis. The edges of epidermis were then folded around the system. This assembly was then mounted on a Teflon rod. A known volume of receptor solution was then placed in a test tube and was equilibrated at 35° C. The Teflon rod with system and epidermis attached was then placed in a water bath at 35° C. Mixing was accomplished by attachment to a motor which caused constant vertical mixing.
At given time intervals, the entire receptor solution was removed from the test tubes and replaced with an equal volume of fresh receptor solutions previously equilibrated at 35° C. The receptor solutions are stored in capped vials at room temperature until assayed for pergolide content by HPLC. From the drug concentration and the volume of the receptor solutions, the area of permeation and the time interval, the flux of the drug through the epidermis was calculated as follows: (drug concentration X volume of receptor)/(area x time)=flux (μg/cm^2·hr).

[2] = Plasma terminal half-life of pergolide administered transdermally; assay type: in vivo; conditions: human, topical or ocular

average baseline skin flux [1]	average baseline skin flux ([1]; listed as pergolide. base)	average baseline skin flux ([1]; listed as pergolide6mesylate)	half-life [2] [h]	Compound
approximately 0.3 μg/cm^2·hr	about 0.3 μg/cm^2·hr	–	–	CCCN1CC(CSC)C[C@@H]2c3cccc4[nH]cc(c34)C[C@H]21 (some centres unmarked) [pergolide base, 8-[(methylthio)methyl]-6-propylergoline]
approximately 1.1 μg/cm^2·hr	–	about 1.1 μg/cm^2·hr	–	CCCN1C[C@H](CSC)C[C@@H]2c3cccc4[nH]cc(c34)C[C@H]21 [pergolide mesylate, 8-[(methylthiolmethyl]6-propylergoline monomethanesulfonate)]
–	–	–	5 to 10	CCCN1CC(CSC)C[C@@H]2c3cccc4[nH]cc(c34)C[C@H]21 (some centres unmarked) [pergolide, 8-[(methylthio)methyl]-6-propylergoline]
